Among the data in US11524960B2, “Heterobicyclic inhibitors of MAT2A and methods of use for treating cancer” (AGIOS PHARMACEUTICALS, INC., priority 2018, dated 2022) are IC50 values, retold here.

Test [1] deals with HCT116 MTAP+/+. In words: Inhibition of cellular proliferation (Cell Titer Glo), HCT116 MTAP+/+. The test is classed as cell-based, human. The following applies: Homo sapiens, HCT-116, 96 h, 4 days, IC50 score, read-out: 4 Day Relative Growth Inhibition (MTAP +/+; Example 277). The method, then: (§1) Test compound impact on cancer cell growth was assessed by treating cancer cells with compound for 4 days and then measuring proliferation using an ATP-based cell proliferation readout (Cell Titer Glo, Promega Corporation).
(§2) In a typical assay an isogenic pair of HCT116 human colon carcinoma cell lines which vary only in MTAP deletion status (HCT116 MTAP+/+ and HCT116 MTAP−/−) were plated in 96-well dishes at appropriate cell density. Following 24 hours, cells were then treated with the candidate MAT2A inhibitor. Prior to addition to cells, the compound was first serially diluted in 100% DMSO, typically as a 3-fold serial dilution starting at 500× top dose with 10 dose points including DMSO only control. Compound was then transferred to a working stock plate in cell culture media by adding 5 μl of compound in DMSO to 495 μl of cell culture media. This working stock was then added to cells via a further 5-fold dilution, by adding 25 μl of working stock to 100 μl of cells in culture media. Following compound addition, cells were incubated at 37° C./5% C02 for 4 days.
(§3) To measure inhibition of cellular proliferation, cells were allowed to equilibrate to room temperature for 30 minutes, and were then treated with 125 μl of Cell Titer Glo reagent. The plate was then covered with aluminum foil and shaken for 15 minutes to ensure complete mixing and full cell lysis. Luminescent signal was then measured using a plate-based luminometer Veritas version 1.9.2 using ATP standard curve to confirm assay reproducibility from run to run. This luminescence measure was converted to a proliferation index by subtracting from each data point the ATP luminescence signal measured from a bank (no cells) well and dividing by the ATP luminescence signal measured in 0.2% DMSO control well adjusted for signal in blank well. Compound activity was then represented as a percentage change in proliferation relative to a within-plate DMSO control against log10 of compound concentration in molar (M) units.

The subject of test [2] is SAM in HCT116 human colon carcinoma cell line engineered to delete the MTAP gene (MTAP −/−). Put plainly: Cellular assay of target engagement (SAM) by LC-MS/MS. The test is classed as cell-based. The following applies: Homo sapiens, HCT-116, 72 h, IC50 score, read-out: Cell 72 h SAM Inhibition (MTAP −/−; Example 276). The method, then: Measurement of MAT2A activity in cells was made by direct quantitation of the abundance of the product of its enzymatic activity, SAM. Cancer cells were treated with candidate MAT2A inhibitors for a suitable incubation period, and the cells were then lysed using a reagent which quenched any further enzyme activity. Soluble metabolites including SAM were collected and SAM itself was directly measured from the lysate using quantitative LC-MS/MS.
A typical assay was performed using an HCT116 human colon carcinoma cell line which was genetically engineered to delete the MTAP gene (commercially available from Horizon Discovery). This cell line was utilized because it was determined that loss of the MTAP gene predicts sensitivity to MAT2A inhibitors. Cells were plated in 96-well dishes at appropriate cell density. Following 24 hours, cells were then treated with the candidate MAT2A inhibitor. Prior to addition to cells, the compound was first serially diluted in 100% DMSO, typically as a 3-fold serial dilution starting at 500× top dose with 10 dose points including DMSO only control. Compound was then transferred to a working stock plate in cell culture media by adding 5 μl of compound in DMSO to 495 μl of cell culture media. This working stock was then added to cells via a further 5-fold dilution, by adding 25 μl of working stock to 100 μl of cells in culture media. Following compound addition, cells were incubated at 37° C./5% CO2 for 72 hrs.
To quantitate SAM levels following compound treatment, cells were gently washed once in Ammonium Carbonate buffer (75 mM at pH 7.4), placed on dry ice, and lysed with metabolite extraction buffer (80% cold methanol and 20% water (v/v) with acetic acid at 1 M final concentration with 200 ng/mL deuterated d3-SAM as internal control). Following centrifugation at 4° C. at 3,200 rpm for 30 minutes, the supernatant was collected and stored at −80° C. until analysis by Liquid Chromatography with tandem Mass Spectrometry (LC-MS/MS). LC-MS/MS analysis was performed using an API6500 Mass Spectrometer (Sciex, Framingham, Mass., USA) operating in positive ion spray mode and equipped with a Waters UPLC Acquity (Waters, Milford, Mass., USA) BEH Amide column. Multiple Reaction Monitoring data was acquired for SAM and the d3-SAM standard, using a mass transition pair at m/z 399.2→250.1 and 402.2→250.1, respectively. In a typical LC-MS/MS analysis, the initial flow rate was 0.5 ml/min of 25% mobile phase A (acetonitrile and water at 5:95 (v/v) with 1% formic acid and 10 mM ammonium acetate) and 75% mobile phase B (acetonitrile and water at 95:5 (v/v) with 1% formic acid and 10 mM ammonium acetate), 0.2-0.5 minutes with 75%-35% mobile phase B, 25%-65% mobile phase A, at 0.5 min 65% mobile phase A and 35% mobile phase B, 1.0-1.1 minutes with 35%-75% mobile phase B, 65%-25% mobile phase A, at 1.1 min 25% mobile phase A and 75% mobile phase B with a total run time of 1.5 minutes.

Test [3] concerns the target T1, MAT2A homodimer (Homo sapiens, UniProt P31153).
T1 construct: inferred from Ni sepharose purification and imidazole elution; made in house; host or cells: Sf9 insect cells, recombinant baculovirus (Bac to Bac, pFASTBAC1)
Put plainly: Biochemical assay: inhibition of MAT2A (phosphate release, PiColorLock Gold). The following applies: MAT2A IC50 score; read-out: Enzyme Inhibition (Example 275). Summed up: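 Baculovirus/Sf9-expressed, Ni-purified MAT2A at 4 µg/mL was preincubated with compound for 60 min at 25 °C in 50 mM Tris pH 8.0, 50 mM KCl, 15 mM MgCl2, 0.3 mM EDTA, 0.005% BSA. Substrate mix (500 μM ATP, 400 μM L-methionine) was added and the reaction ran 60 min at 25 °C. Phosphate released stoichiometrically with SAM was measured colorimetrically against a phosphate standard curve.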

The subject of test [4] is HCT116 MTAP−/−. Put plainly: Inhibition of cellular proliferation (Cell Titer Glo), HCT116 MTAP−/−. The test is classed as cell-based, human. The conditions noted are these: Homo sapiens, HCT-116, 96 h, 4 days, IC50 score, read-out: 4 Day Relative Growth Inhibition (MTAP −/−; Example 277). The protocol:
as §1, §2, §3

SMILES strings stand for the structures. pIC50: −log10 of the molar value.

T1 sequence (P31153 whole entry): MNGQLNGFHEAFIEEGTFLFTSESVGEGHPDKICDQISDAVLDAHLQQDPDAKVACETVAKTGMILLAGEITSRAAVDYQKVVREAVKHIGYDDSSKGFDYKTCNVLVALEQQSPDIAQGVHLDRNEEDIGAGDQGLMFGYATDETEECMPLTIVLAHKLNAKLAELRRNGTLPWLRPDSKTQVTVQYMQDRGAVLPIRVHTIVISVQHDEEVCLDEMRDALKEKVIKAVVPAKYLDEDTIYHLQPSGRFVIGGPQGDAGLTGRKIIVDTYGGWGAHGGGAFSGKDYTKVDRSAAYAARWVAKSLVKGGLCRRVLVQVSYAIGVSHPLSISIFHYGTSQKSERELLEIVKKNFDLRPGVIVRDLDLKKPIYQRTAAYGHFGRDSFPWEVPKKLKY

On to `[2H]C([2H])([2H])Oc1ccc(-c2c(=O)n(-c3ccc4nn(C)cc4c3)cc3ccc(OCC(F)F)nc23)cc1` [Example 115-A], for which the pIC50 in test [1] is 5.00 to 7.00; in test [2] it was more than 7.00; in test [3], more than 7.00; in test [4] it was more than 7.00.
Consider `[2H]C([2H])([2H])Oc1ccc(-c2c(=O)n(-c3ccc4nn(C)cc4c3)cc3ccc(OCC(F)(F)F)nc23)cc1` [Example 116-A], for which the pIC50 in test [1] is less than 5.00; in test [2], more than 7.00; in test [3], more than 7.00; in test [4] it was more than 7.00.
Regarding `[2H]C([2H])([2H])Oc1ccc(-c2c(=O)n(-c3ccc4nn(C)cc4c3)cc3ccc(OCC)nc23)cc1` [Example 117-A], the pIC50 is 5.00 to 7.00 in test [1], more than 7.00 in test [2], more than 7.00 in test [3] and more than 7.00 in test [4].
With `Cn1cc2cc(-n3cc4ccc(OCC(F)(F)F)nc4c(-c4ccc(C(F)F)nc4)c3=O)ccc2n1` [Example 118-A], the pIC50 was 5.00 to 7.00 in test [1], more than 7.00 in test [2], more than 7.00 in test [3] and more than 7.00 in test [4].
`CCOc1ccc2cn(-c3ccc4nn(C)cc4c3)c(=O)c(-c3cnc(C(F)(F)F)nc3)c2n1` [Example 119-A]: the pIC50 in test [1] is 5.00 to 7.00; in test [2], more than 7.00; in test [3], more than 7.00; in test [4], more than 7.00.
For the compound `Cn1cnc2ccc(-n3cc4ccc(OCC(F)(F)F)nc4c(-c4ccc(C5CC5)nc4)c3=O)cc21` [Example 120-A], the pIC50 was 5.00 to 7.00 in test [1], more than 7.00 in test [2], more than 7.00 in test [3] and more than 7.00 in test [4].
Regarding `CCOc1ccc2cn(-c3ccc(OC)cc3)c(=O)c(-c3ccc(OC(F)(F)F)nc3)c2n1` [Example 121-A], the pIC50 is 5.00 to 7.00 in test [1], more than 7.00 in test [2], more than 7.00 in test [3] and 5.00 to 7.00 in test [4].
Turning to `CCOc1cc(C)c2cn(-c3ccc4nn(C)cc4c3)c(=O)c(-c3ccc(Cl)cc3)c2n1` [Example 122-A], the pIC50 in test [1] was 5.00 to 7.00; in test [2], more than 7.00; in test [3], more than 7.00; in test [4], more than 7.00.
With `Cn1cc2cc(-n3cc4cnc(NCC(F)(F)F)nc4c(-c4ccc(Cl)cc4)c3=O)ccc2n1` [Example 123, 8-(4-chlorophenyl)-6-(2-methyl-2H-indazol-5-yl)-2-((2,2,2-trifluoroethyl)amino)pyrido[4,3-d]pyrimidin-7(6H)-one], the pIC50 is 5.00 to 7.00 in test [1], more than 7.00 in test [2], more than 7.00 in test [3] and more than 7.00 in test [4].
As for `Cn1cc2cc(-n3cc4ccc(OCC(F)F)nc4c(-c4ccc(OC(F)F)nc4)c3=O)ccc2n1` [Example 123-A], the pIC50 in test [1] is 5.00 to 7.00; in test [2], more than 7.00; in test [3], more than 7.00; in test [4], more than 7.00.
As for `Cc1nc2ccc(-n3cc4cnc(NCC(F)(F)F)nc4c(-c4ccc(Cl)cc4)c3=O)cc2n1C` [Example 124, 8-(4-chlorophenyl)-6-(1,2-dimethyl-1H-benzo[d]imidazol-6-yl)-2-((2,2,2-trifluoroethyl)amino)pyrido[4,3-d]pyrimidin-7(6H)-one], the pIC50 is less than 5.00 in test [1], more than 7.00 in test [2], more than 7.00 in test [3] and more than 7.00 in test [4].
With `Cn1cc2cc(-n3cc4ccc(OCC(F)(F)F)nc4c(-c4ccc(C(F)(F)F)nc4)c3=O)ccc2n1` [Example 124-A], the pIC50 in test [1] was 5.00 to 7.00; in test [2], more than 7.00; in test [3], more than 7.00; in test [4] it was 5.00 to 7.00.
Regarding `Cn1cc2cc(-n3cc4ccc(OCC(F)F)nc4c(-c4ccc(OC(F)(F)F)nc4)c3=O)ccc2n1` [Example 125-A], the pIC50 in test [1] was 5.00 to 7.00; in test [2], more than 7.00; in test [3], more than 7.00; in test [4] it was more than 7.00.
